{"source": "patent US20100130618A1", "about": "“TREATMENT OF HUMAN DISEASE CONDITIONS AND DISORDERS USING VITAMIN K ANALOGUES AND DERIVATIVES” (priority 2007, published 2010)", "key": {"[1]": {"conditions": "cited from earlier work"}, "[2]": {"conditions": "cited from earlier work", "remark": "listed apart in the source"}, "[3]": {"conditions": "cited from earlier work", "remark": "listed apart in the source"}, "[4]": {"conditions": "50 gms natto per day with 865, 1295 or 1730 μg MK-7 per 100 g; cited from earlier work"}, "[5]": {"experiment": "Clinical case studies of oral MK-7 (Examples 1-10)", "assay_type": "in vivo, humans", "source_text": "Examples 1-10 enumerate clinical case studies data and Examples 11 and 12 provide in vitro experiments."}, "Guinea Pig ileum [6]": {"tested_on": "Guinea Pig ileum", "experiment": "Guinea pig ileum, barium chloride induced smooth muscle contraction", "conditions": "dose 640 μg (1.6 ml); barium chloride 1%", "procedure": "(§1) Muscle relaxant activity was evaluated of pure test samples PK and MK-4 with Frog Rectus Abdominus Muscle and Guinea Pig ileum.\n(§2) To evaluate the effect of test samples on smooth muscle contraction induced by (a) Acetylcholine (Neurotransmitter) which acts on […] receptors, (b) Histamine that causes a transient rise of cytosolic calcium, which is mediated by H1 receptor coupling that triggers release of internal calcium stores and (c) Barium that enters the cell through a voltage dependent calcium channel and, either directly or indirectly, interacts with calmodulin.\n(§3) Test Samples were PK-400 μg/ml and MK-4-400 μg/ml"}, "Guinea Pig ileum [7]": {"tested_on": "Guinea Pig ileum", "experiment": "Guinea pig ileum, histamine induced smooth muscle contraction", "conditions": "dose 640 μg (1.6 ml); histamine 25 μg/ml", "procedure": "as §1, §2, §3"}, "Guinea Pig ileum [8]": {"tested_on": "Guinea Pig ileum", "experiment": "Guinea pig ileum, acetylcholine induced smooth muscle contraction", "conditions": "for inhibition of acetylcholine induced smooth muscle contraction: acetylcholine 50 μg/ml; for smooth muscle relaxant activity (inference): overall inference from guinea pig ileum data", "procedure": "as §1, §2, §3"}, "[9]": {"tested_on": "Frog Rectus Abdominus Muscle", "experiment": "Frog rectus abdominus muscle preparation, acetylcholine induced skeletal muscle contraction", "conditions": "for antagonism of contraction induced by acetylcholine (40 μg): dose of 400 μg; for activity on skeletal muscle contraction (inference): overall inference", "procedure": "as §1\nB) Frog Rectus Abdominus Muscle Preparation\nTo evaluate the effect of test samples on skeletal muscle contraction induced by Acetylcholine (Neurotransmitter).\nAcetylcholine: 100 mcg/ml\nas §3"}, "Frog Heart": {"tested_on": "Frog Heart", "experiment": "Frog heart, adrenaline-induced contractions", "conditions": "for inhibition of adrenaline-induced contractions: 0.1 ml (40 μg), 0.2 ml (80 μg) and 0.4 ml (160 μg), adrenaline 40 μg/ml; for beta blocker activity (inference): overall inference from adrenalic response", "procedure": "Frog Heart Adrenaline: 40 μg/ml"}, "[10]": {"conditions": "Example 02: MK-7 p.o. every day"}, "[11]": {"conditions": "Example 05: person, 100 μg per day"}}, "note": "Where two headings read alike, the source gives them in different places.", "data": [{"molecule": "CC(C)=CCC/C(C)=C/CC/C(C)=C/CC/C(C)=C/CC/C(C)=C/CC/C(C)=C/CC/C(C)=C/CC1=C(C)C(=O)c2ccccc2C1=O", "note": "[MK-7]", "values": [{"measurement": "reduction (mid tertile)", "setting": "[1]; dietary intake 24 μg per day mid tertile vs 12 μg per day lower tertile", "result": 25, "unit": "%"}, {"measurement": "reduction in CHD mortality and aortic calcification", "setting": "[1]; dietary intake 45 μg per day upper tertile vs 12 μg per day lower tertile, 10 years follow-up", "result": 50, "unit": "%"}, {"measurement": "reduction in all cause mortality", "setting": "[1]; dietary intake 45 μg per day upper tertile vs 12 μg per day lower tertile", "result": 25, "unit": "%"}, {"measurement": "serum MK-7 concentration (mean±SD)", "setting": "[2]; British women", "result": "0.37 ± 0.20", "unit": "ng/mL"}, {"measurement": "serum MK-7 concentration (mean±SD)", "setting": "[2]; Japanese women in Hiroshima", "result": "1.22 ± 1.85", "unit": "ng/mL"}, {"measurement": "serum MK-7 concentration (mean±SD)", "setting": "[2]; Japanese women in Tokyo", "result": "5.26 ± 6.13", "unit": "ng/mL"}, {"measurement": "concentration relative to the peak value concentration (Cmax) achieved by PK", "setting": "[3]; at 72 hrs", "result": "> 50", "unit": "%"}, {"measurement": "detectability in circulation", "setting": "[3]; at 72 hrs", "result": "remains detectable"}, {"measurement": "half life", "setting": "[3]; in vivo", "result": 50, "unit": "h"}, {"measurement": "serum MK-7 concentration and γ-carboxylated osteocalcin concentration", "setting": "[4]", "result": "elevated parallel to the administered level"}, {"measurement": "tingling, numbness and burning of feet", "setting": "[5]; Example 01: person, type 2 diabetes, MK-7 100 μg per day for 2 months", "result": "complete relief"}, {"measurement": "skin hyper pigmentation of nape of neck", "setting": "[5]; Example 01: person, type 2 diabetes, MK-7 for one and a half years", "result": "almost subsided"}, {"measurement": "energy levels and fatigue", "setting": "[5]; Example 02: MK-7 added to schedule", "result": "higher energy levels and less fatigue"}, {"measurement": "paper-money skin appearance", "setting": "[5]; [10]", "result": "much reduced"}, {"measurement": "tingling and numbness", "setting": "[5]; [10]", "result": "reduced markedly"}, {"measurement": "frequency of mild cramps", "setting": "[5]; Example 02: MK-7 p.o. every day, over the next four months (before: 2 to 3 times in a week)", "result": "one or two in a month"}, {"measurement": "severity and frequency of muscle cramps", "setting": "[5]; Example 02: person, type 2 diabetes, hypertension, MK-7 p.o. every day, over the next two weeks", "result": "steadily decreased"}, {"measurement": "cramps during night and day", "setting": "[5]; Example 03: person, 100 μg one tablet per day, after six months", "result": "disappeared"}, {"measurement": "rough skin on both heels", "setting": "[5]; Example 04: person, daily dose 200 μg, within 10-15 days", "result": "completely lost roughness and became smooth"}, {"measurement": "scalp hair-loss", "setting": "[5]; [11]", "result": "stopped distinctly"}, {"measurement": "skin of feet", "setting": "[5]; [11]", "result": "smoothness of skin of their feet, diminution of cracks in the feet"}, {"measurement": "hyper pigmentation and paper-money skin of lower limbs", "setting": "[5]; Example 05: person, p.o. 100 μg per day", "result": "gradually reduced to a bare minimum"}, {"measurement": "frequency, duration and severity of leg cramps", "setting": "[5]; Example 06: person, 100 μg two times a day", "result": "decreased"}, {"measurement": "skin lightening", "setting": "[5]; Example 07: 100 μg twice a day, another 3 months (6 months total)", "result": "considerable lightening of the skin"}, {"measurement": "hyper pigmentation of face, arms and neck", "setting": "[5]; Example 07: person, 100 μg twice a day, after 2 to 3 months", "result": "decreased"}, {"measurement": "nail growth", "setting": "[5]; Example 08: 200 μg per day, over 2 months", "result": "grows faster"}, {"measurement": "severity of cramps after marathon", "setting": "[5]; Example 08: athlete, 200 μg per day, within 2 months", "result": "lowered"}, {"measurement": "residual neuropathy symptoms (tingling, numbness, paresthesiae, burning sensation)", "setting": "[5]; Example 09: diabetic, 100 μg per day, within 15 days", "result": "disappears completely"}, {"measurement": "frequency of restless legs syndrome", "setting": "[5]; Example 10: 200 μg per day for 1 year (before: every night)", "result": "once or twice a month"}, {"measurement": "restless legs syndrome", "setting": "[5]; Example 10: person, 200 μg per day, within 2 weeks", "result": "reduced considerably"}]}, {"molecule": "CC1=C(C/C=C(\\C)CCC[C@H](C)CCC[C@H](C)CCCC(C)C)C(=O)c2ccccc2C1=O", "note": "[PK, phylloquinone]", "values": [{"measurement": "inhibition of barium chloride induces smooth muscle contraction", "setting": "Guinea Pig ileum [6]", "result": 31, "unit": "%"}, {"measurement": "inhibition of histamine induced smooth muscle contraction", "setting": "Guinea Pig ileum [7]", "result": 37.16, "unit": "%"}, {"measurement": "inhibition of acetylcholine induced smooth muscle contraction", "setting": "Guinea Pig ileum [8]; dose 320 μg (0.8 ml)", "result": 38.46, "unit": "%"}, {"measurement": "inhibition of acetylcholine induced smooth muscle contraction", "setting": "Guinea Pig ileum [8]; dose 640 μg (1.6 ml)", "result": 46.15, "unit": "%"}, {"measurement": "smooth muscle relaxant activity (inference)", "setting": "Guinea Pig ileum [8]", "result": "demonstrate a smooth muscle relaxant activity"}, {"measurement": "antagonism of contraction induced by acetylcholine (40 μg)", "setting": "[9]", "result": "not antagonized"}, {"measurement": "activity on skeletal muscle contraction (inference)", "setting": "[9]", "result": "failed to exhibit activity"}, {"measurement": "elimination half life", "setting": "[3]; in vivo", "result": 1.5, "unit": "h"}, {"measurement": "absorption from vegetables", "setting": "[3]; taken together with 30 g fat", "result": "10-15%"}, {"measurement": "absorption from vegetables", "setting": "[3]; without concomitant fat intake", "result": "5-10%"}, {"measurement": "inhibition of adrenaline-induced contractions", "setting": "Frog Heart", "result": "failed to inhibit"}, {"measurement": "beta blocker activity (inference)", "setting": "Frog Heart", "result": "do not exhibit beta blocker activity"}]}, {"molecule": "CC(C)NCC(O)COc1cccc2ccccc12", "note": "(stereo not drawn) [Propanolol]", "values": [{"measurement": "inhibition of adrenaline response", "setting": "Frog Heart; reference competitive inhibitor of adrenaline, FIG. 6", "result": "found to inhibit adrenaline response"}]}, {"molecule": "CC(C)=CCC/C(C)=C/CC/C(C)=C/CC/C(C)=C/CC1=C(C)C(=O)c2ccccc2C1=O", "note": "[MK-4, menatetrenone]", "values": [{"measurement": "inhibition of barium chloride induces smooth muscle contraction", "setting": "Guinea Pig ileum [6]", "result": 29, "unit": "%"}, {"measurement": "inhibition of histamine induced smooth muscle contraction", "setting": "Guinea Pig ileum [7]", "result": 29.4, "unit": "%"}, {"measurement": "inhibition of acetylcholine induced smooth muscle contraction", "setting": "Guinea Pig ileum [8]; dose 80 μg (0.2 ml)", "result": 21.62, "unit": "%"}, {"measurement": "inhibition of acetylcholine induced smooth muscle contraction", "setting": "Guinea Pig ileum [8]; dose 160 μg (0.4 ml)", "result": 40, "unit": "%"}, {"measurement": "inhibition of acetylcholine induced smooth muscle contraction", "setting": "Guinea Pig ileum [8]; dose 320 μg (0.8 ml)", "result": 81.81, "unit": "%"}, {"measurement": "smooth muscle relaxant activity (inference)", "setting": "Guinea Pig ileum [8]", "result": "demonstrate a smooth muscle relaxant activity"}, {"measurement": "antagonism of contraction induced by acetylcholine (40 μg)", "setting": "[9]", "result": "not antagonized"}, {"measurement": "activity on skeletal muscle contraction (inference)", "setting": "[9]", "result": "failed to exhibit activity"}, {"measurement": "inhibition of adrenaline-induced contractions", "setting": "Frog Heart", "result": "failed to inhibit"}, {"measurement": "beta blocker activity (inference)", "setting": "Frog Heart", "result": "do not exhibit beta blocker activity"}]}, {"molecule": "vitamin B12", "values": [{"measurement": "tingling and numbness", "setting": "[5]; Example 02: vitamin B12 deficiency on Metformin, injections 500 μg over 2 weeks, MK-7 continued", "result": "significant relief"}]}]}
